Assay results as given in patent publication US4492693A, “Benzothienylglycyl cephalosporin derivatives” (priority 1983, dated 1985).
Where two headings read alike, the source gives them in different places.

What was measured:
[1] = pKa (66% aqueous DMF); assay type: physicochemical
[2] = tested on: Staph. aureus; experiment: Agar Dilution MIC (Table I); assay type: cell-based; details: Staphylococcus aureus, read-out: Agar Dilution MIC
[3] = tested on: Staph. epi; experiment: Agar Dilution MIC (Table I); assay type: cell-based; details: read-out: Agar Dilution MIC
[4] = tested on: Strep. A; experiment: Agar Dilution MIC (Table I); assay type: cell-based; details: strain C203; read-out: Agar Dilution MIC
[5] = tested on: Strep. PN; experiment: Agar Dilution MIC (Table I); assay type: cell-based; details: strain PARK
[6] = tested on: Strep. D; experiment: Agar Dilution MIC (Table I); assay type: cell-based; details: read-out: Agar Dilution MIC
Description: (§1) A typical and preferred compound provided by this invention is 7-(3-benzothienyl)glycylamido-3-methyl-3-cephem-4-carboxylic acid, the compound illustrated in Example 9. The antibacterial activity of this compound has been determined in standard in vitro agar dilution assays against a variety of gram positive and gram negative microorganism. The following Tables present typical minimum inhibitory concentrations (MIC's) in μg/ml for several compounds of the invention when evaluated against the indicated microorganisms. MIC's for several known compounds are also presented for comparison.
Agar Dilution MIC (μg/ml)

[7] = tested on: H. influ.; experiment: Agar Dilution MIC (Table I); assay type: cell-based; details: read-out: Agar Dilution MIC
[8] = tested on: E. coli; experiment: Agar Dilution MIC (Table I); assay type: cell-based; details: Escherichia coli
[9] = tested on: Klebsiella; experiment: Agar Dilution MIC (Table I); assay type: cell-based; details: Klebsiella, read-out: Agar Dilution MIC
[10] = tested on: H. influenzae; experiment: Expanded Spectrum MIC (Table II); assay type: cell-based; details: Haemophilus influenzae
Description: as §1
(§2) Expanded Spectrum MIC (μg/ml)

[11] = tested on: Staph. aureus; experiment: Expanded Spectrum MIC (Table II); assay type: cell-based; details: Staphylococcus aureus
Description: as §1, §2

[12] = tested on: Staph. epi; experiment: Expanded Spectrum MIC (Table II); assay type: cell-based
Description: as §1, §2

[13] = tested on: Bacteroides corrodens; experiment: Susceptibility of Anaerobic Bacteroides Isolates by the Agar-Dilution Method (Table III); assay type: cell-based; details: Eikenella corrodens; strain 1874; readings 24 hrs. after incubation
Description: as §1
(§3) Susceptibility of Anaerobic Bacteroides Isolates by the
(§4) Agar-Dilution Method MIC (μg/ml) readings 24 hrs. after incubation

[14] = tested on: Bacteroides fragilis; experiment: as above; assay type: cell-based; details: 24 h
Description: as §1, §3, §4

[15] = tested on: Bacteroides thetaiotaomicron; experiment: as above; assay type: cell-based; details: 24 h
Description: as §1, §3, §4

C=CCOC(=O)NC(C(=O)O)c1csc2ccccc12 (centres unmarked) [N-Allyloxycarbonyl-(3-benzothienyl)glycine]
5.7: pKa [1]

CC1=C(C(=O)O)N2C(=O)C(NC(=O)[C@H](N)c3csc4ccc(F)cc34)C2SC1 (stereo partly drawn) [Ex. 18, D-7-(5-Fluoro-3-benzothienyl)glycylamido-3-methyl-3-cephem-4-carboxylic acid]
64 µg/mL: MIC ([2]; strain X400) | MIC ([8]; strain EC14) | MIC ([8]; strain TEM) | MIC ([10]; strain M366) | MIC ([10]; strain R465) | MIC ([10]; strain STEL) | MIC [13] | MIC ([14]; strain 103, readings 24 hrs. after incubation)
16 µg/mL: MIC ([14]; strain 104, readings 24 hrs. after incubation) | MIC ([14]; strain 106, readings 24 hrs. after incubation) | MIC ([14]; strain 107, readings 24 hrs. after incubation) | MIC ([14]; strain 108, readings 24 hrs. after incubation) | MIC ([14]; strain 110, readings 24 hrs. after incubation) | MIC ([14]; strain 1877, readings 24 hrs. after incubation) | MIC ([15]; strain 1438, readings 24 hrs. after incubation)
128 µg/mL: MIC ([6]; strain 2041) | MIC ([6]; strain X66) | MIC ([8]; strain N10) | MIC ([9]; strain KAE) | MIC ([9]; strain X68) | MIC ([14]; strain 111, readings 24 hrs. after incubation)
1 µg/mL: MIC ([2]; strain X1.1) | MIC [5] | MIC ([7]; strain 76) | MIC ([10]; strain 76) | MIC ([10]; strain 105) | MIC ([10]; strain 158) | MIC ([10]; strain 164) | MIC ([10]; strain 169) | MIC ([10]; strain 171) | MIC ([10]; strain 312) | MIC ([10]; strain 1930) | MIC ([10]; strain 4842) | MIC ([10]; strain M370) | MIC ([10]; strain M371) | MIC ([11]; strain S224) | MIC ([11]; strain S225) | MIC ([11]; strain S228) | MIC ([11]; strain S230) | MIC ([11]; strain S231) | MIC ([12]; strain 219) | MIC ([12]; strain 286)
32 µg/mL: MIC ([15]; strain 1900A, readings 24 hrs. after incubation)
4 µg/mL: MIC ([3]; strain 222) | MIC ([7]; strain C.L.) | MIC ([9]; strain X26) | MIC ([12]; strain 269) | MIC ([12]; strain 270)
0.25 µg/mL: MIC [4] | MIC ([10]; strain 1683)
8 µg/mL: MIC ([2]; strain V41) | MIC ([3]; strain EPI1) | MIC ([12]; strain EPI1) | MIC ([14]; strain 9, readings 24 hrs. after incubation)
2 µg/mL: MIC ([10]; strain C.L.) | MIC ([10]; strain HESS) | MIC ([11]; strain S226) | MIC ([11]; strain S227) | MIC ([11]; strain S229) | MIC ([11]; strain S234) | MIC ([11]; strain S237) | MIC ([11]; strain S238) | MIC ([11]; strain S239) | MIC ([12]; strain 285)
